# Source: patent US9011863B2, “Combinations of kinase inhibitors for the treatment of cancer” (Exelixis, Inc., priority 2010, dated 2015)
# Assays:
# [1] = system: phospho-Akt, HER3, RTKs and intracellular kinases in HCC1937 cells; assay: phospho-RTK / phospho-kinase arrays and Western blotting in HCC1937 cells; type: cell-based, human
# Method: FIG. 1A. siRNA screen to identify kinases that potentially compensate for PI3K inhibition. HCC1937 breast cancer cells were treated with the indicated amounts of compound A for 6, 24, or 72 hours in medium containing 2.5% FBS. Cell lysates analyzed by immunoblotting with the indicated antibodies.
# (§1) FIGS. 3A and 3B. PI3K inhibition induces phosphorylation of RTKs and intracellular kinases. HCC1937 cells were treated with 10 μM compound A in medium containing 2.5% FBS for 0, 8, 24, or 48 hours. Media and drugs were replenished every 24 hours. Lysates were used to probe phospho-RTK arrays (FIG. 3A) or phospho-kinase arrays (FIG. 3B) (R&D systems). Corner spots are positive controls. Candidate kinases from the siRNA screen that are also phosphorylated upon treatment with compound A are shown in red.
# as §1, with “4A” for “3A”, “4B.” for “3B. PI3K inhibition induces phosphorylation of RTKs and intracellular kinases.”, “(A)” for “(FIG. 3A)”, “(B)” for “(FIG. 3B)”
# The purpose of the present study is to identify kinases and kinase-regulated signaling pathways that compensate for PI3K inhibition in human breast cancer cells. To this end, siRNA screen is employed targeting 779 human kinases in order to determine if downregulation of specific kinases increases the sensitivity of HCC1937 human breast cancer cells to the PI3K inhibitor compound A, which a compound of formula I and of Table 1. […] Following reverse transfection with the siRNA library, cells are treated with either DMSO or 10 μM compound A for 72 hours in a medium containing 2.5% fetal bovine serum (FIGS. 1A and 2) and the alamar blue assay is used to measure cell viability FIG. 1B. […] HCC1937 cells were treated with 10 μM compound A in medium containing 2.5% FBS for 0, 2, 8, or 24 hours. RNA was isolated with Trizol and purified using the RNeasy column (Qiagen). Gene expression from three independent experiments was measured using the Gene titan 3′ microarray. *, p<0.05; **, p<0.01 versus 0 hours, as shown in FIG. 5.
# [2] = system: receptors of tyrosine kinase (RTKs) in BT474 cells; assay: phospho-RTK arrays and RTK qPCR in BT474 cells; type: cell-based, human
# Method: FIG. 19B depicts a photomicrograph of BT474 cells were treated with 6 μM compound A over a time course up to 24 hours as indicated. Cell lysates were prepared, and 200 μg of total protein were hybridized to arrays containing probes for 42 different receptors of tyrosine kinase (RTKs).
# FIG. 19C depicts a photomicrograph of BT474 cells were treated with 6 μM compound A over a time course up to 24 hours as indicated.
# FIG. 19D depicts a bar-graph representing the amount of RTK mRNA as identified using real-time qPCR analysis of the indicated RTKs in RNA collected from BT474 cells treated with either DMSO or 10 μM compound A for 6 hours.
# Immunoprecipitation, immunoblotting, and RTK assays were performed according to published methods. Primary antibodies included AKT, pAKT^S473, pAKT^T308, ERK, pERK^T202/Y204, pHER2^Y1248, pHER3^Y1197, pHER3^Y1222, pHER3^Y1289, S6, pS6^S240/244, p27, pRb^S780, FoxO1, FoxO3a, MEK1/2 (Cell Signaling Technology, Danvers, Mass., USA), p85, 4G10 pTyr (Millipore, Billerica, Mass., USA), HER3, CyclinD1, RhoA, HDAC3 (Santa Cruz Biotechnology, Santa Cruz, Calif., USA), PARP (BD Transduction Laboratories), β-actin (Sigma, St. Louis, Mo., USA), and HER2 (Neomarkers, division of Thermo Scientific, Freemenot, Calif., USA). […] Immunoreactive signals were detected by enhanced chemilluminsecence (Pierce, Rockford, Ill., USA). […]
smiles,measurement,setting,value
COc1ccc(Cl)c(Nc2nc3ccccc3nc2NS(=O)(=O)c2cccc(NC(=O)C(C)(C)N)c2)c1 [Compound A],phospho-Akt and HER3 by Western blotting,[1]; HCC1937,decreases phospho-Akt at S473 and T308 and increases phospho- and total HER3
same,phosphorylation of MAP kinases,[1]; HCC1937,"increases phosphorylation of the MAP kinases ERK, JNK, and p38 MAPK"
same,phospho-Akt,"[1]; HCC1937, 10 μM, 48 hours",phosphorylation at S473 is partially restored
same,phospho-Akt,"[1]; HCC1937, 10 μM, eight and 24 hour treatments",suppressed phospho-Akt at both S473 and T308
same,expression and/or phosphorylation of RTKs and intracellular kinases,"[1]; HCC1937, 10 μM, within 8-48 hours",increased expression and/or phosphorylation of many RTKs and intracellular kinases
same,phospho-RTK arrays,"[2]; BT474, 6 μM, 24-h time course","increase in not only HER3, but also multiple other RTKs"
same,RTK mRNAs by qPCR,"[2]; BT474, 10 μM, 6 hours","increase in ERBB4, IGF-IR, InsR, EphA1, FGFR2, and FGFR3 mRNAs"
